From patent US20240002351A1, “QUINAZOLIN-4-ONE AND THIENO[2,3-D]PYRIMIDIN-4-ONE INHIBITORS OF ERBB4 (HER4) FOR USE IN THE TREATMENT OF CANCER” (UNIVERSITEIT ANTWERPEN, priority 2021, published 2024)

Tests used:
[1] = test system: Human atrial cardiac fibroblasts (HCF); assay: In vitro fibrosis assay, TGFβ-stimulated HCF (qRT-PCR); format: cell-based; settings: TGFβ 10 ng/mL, 24 hours (FIG. 9)
Protocol: (§1) Human dermal fibroblasts (HDF, Cell applications, 106-05A) were cultured in Dulbecco's modified Eagle's medium (DMEM, ThermoFisher Scientific, 11995065) supplemented with 10% (v/v) heat-inactivated fetal bovine serum (FBS, ThermoFisher Scientific, 10082147), 1% penicillin/streptomycin and 1 mL polymyxin B and were maintained at 37° C. in humidified atmosphere of 5% CO2 in air. Human atrial cardiac fibroblasts (HCF, Innoprot, P10454) were cultured in fibroblast medium (Innoprot, P60108) supplemented with fetal bovine serum, fibroblast growth supplement and penicillin/streptomycin and were maintained at 37° C. in humidified atmosphere of 5% CO2 in air.
Following 1-9 passages, HDF and HCF were seeded at 0.3×10^6 cells/well in 1 mL cell medium in 12-well plates and incubated overnight at 37° C. in humidified atmosphere of 5% CO2 in air. Next, cells were put on serum starved medium (0.1% FBS) for 8 hours and then stimulated for 24 hours with either PBS, active compound (4-32 μM) or non-active compound (NA1, NA2; 4-32 μM) on top of TGFβ (10 ng/mL, Peprotech, 100-21). […] Next, cells were lysed using 100 μL lysis buffer RA1 (of RNA isolation kit below) supplemented with β-mercapto-ethanol (100:1), scraped with a cell scraper and transferred to centrifuge tubes to be stored at −20° C. for a maximum of 2 weeks before RNA isolation.
RNA was extracted using Nucleospin RNA XS (Machery Nagel) according to the manufacturer's instructions. For cDNA synthesis, total RNA was added to a solution containing buffer with random hexamers and reverse transcriptase enzyme. The PCR was performed using the following parameters: 10 minutes at 25° C., 30 minutes at 48° C., 5 minutes at 95° C. RT-qPCR on the cDNA samples was performed using Taqman Universal PCR Master Mix (Applied Biosystems) and Taqman primers according to the manufacturer's instructions. […] Expression levels were calculated using the comparative cycle method and expressed as fold change to appropriate (background) control. […]

[2] = test system: C57BL/6N male mice; assay: In vivo anti-fibrotic capacity, Angiotensin II left ventricular remodeling mouse model
Protocol: Left ventricular (LV) remodeling was induced in 13-week old C57BL/6N male mice by Angiotensin II (AngII, 1000 ng/kg/min, Sigma Aldrich) using a subcutaneous micro-osmotic pump (model 1004, Alzet). Next to AngII, the mice were also given a second s.c. micro-osmotic pump filled with selected hit compound (83 μg/kg/h) or vehicle. Control groups (sham, compound alone, AngII alone) were also implemented. After 4 weeks of treatment, mice were euthanized and hearts were collected.
Hearts were fixed and embedded in paraffin. The LV interstitial collagen fraction was determined in Masson trichrome blue-stained areas. Cardiomyocyte outlines were stained with antibodies specific for laminin (NB300-144; Novus Biologicals), and cardiomyocyte cross-sectional area was determined by averaging 20 representative cardiomyocytes per section per animal (5 sections/animal). Data was skewed, therefore log transformation was performed. Endothelial cells were stained with isolectin B4 (Vector Laboratories) and capillary density was determined as the number of capillaries per 100 cardiomyocytes by averaging the number of capillaries per cardiomyocytes on 5 images per animal. Capillaries and cardiomyocytes were counted (by an investigator blinded to the treatment protocol) per section per animal (5 sections/animal). Capillaries were normalized to tissue area to calculate capillary density.

[3] = test system: C57BL/6N mice; assay: In vivo acute toxicity study; settings: accumulative i.p. doses, hematoxylin and eosin staining (FIG. 15)
Protocol: An acute toxicity study was performed on C57BL/6N mice using accumulative doses of compound 1 (n=3) or vehicle (n=3, 10% DMSO). On day 1, mice received 0.4 mg/kg cpd 1, day 2 1.2 mg/kg, day 3 4 mg/kg, day 4 4 mg/kg by intraperitoneal injection. At day 4, 1 hour after injection of 4 mg/kg, the mice were sacrificed and the hearts, liver, and kidney excised. The histology of the organs was evaluated by hematoxylin and eosin staining.

[4] = test system: Human dermal fibroblasts (HDF); assay: In vitro fibrosis assay, TGFβ-stimulated HDF (qRT-PCR); format: cell-based; settings: TGFβ 10 ng/mL, 4-32 μM (FIGS. 8C-8F)
Protocol: as §1
Following 1-9 passages, HDF and HCF were seeded at 0.3×10^6 cells/well in 1 mL cell medium in 12-well plates and incubated overnight at 37° C. in humidified atmosphere of 5% CO2 in air. Next, cells were put on serum starved medium (0.1% FBS) for 8 hours and then stimulated for 24 hours with either PBS, active compound (4-32 μM) or non-active compound (NA1, NA2; 4-32 μM) on top of TGFβ (10 ng/mL, Peprotech, 100-21). […]
RNA was extracted using Nucleospin RNA XS (Machery Nagel) according to the manufacturer's instructions. […] Expression levels were calculated using the comparative cycle method and expressed as fold change to appropriate (background) control. […]

[5] = Metabolic stability, human liver microsomes; format: in vitro ADME
Protocol: A mixture of 713 μL milliQ water (Millipore, MA, USA), 200 μL 0.5 M phosphate buffer (pH 7.4, BD Diagnostic Systems, MD, USA), 50 μL NADPH regenerating system solution A (BD Biosciences, CA, USA), 10 μL NADPH regenerating system solution B (BD Biosciences, CA, USA) and 2 μL compound (5 mM in DMSO) was prepared and heated for 5 min at 37° C. Twenty-five μL of liver microsomes (0.5 mg protein/mL, Corning B.V. Life Sciences, Amsterdam, Netherlands) was added to the mixture and 20 μL samples were withdrawn at 0, 0.25, 0.5 and 1, 2, 4, 6 and 24 hours. Eighty μL (4×20 μL) of cold acetonitrile (Sigma-Aldrich, MO, USA) was added to the samples on ice for 10 min. Afterwards, the mixtures were centrifuged at 13,000 rpm for 5 min at 4° C. Seventy-five μL of an acetonitrile/water (10/90) mixture was added to 25 μL supernatant and the obtained samples were analyzed by LC-MS/MS (Waters Acquity H-class UPLC system with ion trap mass spectrometer, Bruker Daltonics Esquire 3000 plus, and Agilent 1100 Series LC system) in triplicate.

Structure (SMILES) | col1a1 levels in comparison with TGFβ control [1] | capillary density compared to vehicle ([2]; 4 weeks (FIG. 14D)) | myocardial fibrosis compared to angiotensin II/vehicle ([2]; AngII 1000 ng/kg/min + compound 83 μg/kg/h s.c. pump, 4 weeks (FIG. 14A)) | HW:BW ratio ([2]; add-on to angiotensin II, 4 weeks (FIG. 14B)) | cardiomyocyte cross sectional area compared to angiotensin II/vehicle ([2]; add-on to angiotensin II, 4 weeks (FIG. 14C)) | histology of heart, liver and kidney (treated vs control group) [3] | antifibrotic effect (col1a1 and col3a1 levels) [4] | t1/2 human ([5]; human liver microsomes) | half-life at 10 µM ([5]; human, liver microsomes, pH 7.4, human liver microsomes, read-out: t1/2 human) | col3a1 levels in comparison with TGFβ control [1]
O=C(NC1CC1)C(Sc1nc2ccccc2c(=O)n1C1CCCC1)c1ccccc1 (centres unmarked) [Compound 1] | significantly decrease col1a1 levels | significantly increased capillary density | significantly attenuated myocardial fibrosis | no effect | did increase | no significant difference in structures of cardiac, liver and renal cells | – | – | – | –
Cc1sc2nc(SC(C)C(=O)Nc3sccc3C(N)=O)n(CC(C)C)c(=O)c2c1C (centres unmarked) [Compound 6] | – | – | – | – | – | – | significant dose-dependent antifibrotic effects | 17 min | 17 to 18 min | –
CC(Sc1nc2ccccc2c(=O)n1C1CCCC1)c1nc2ccccc2n1C(F)F (centres unmarked) [Compound 7] | – | – | – | – | – | – | significant dose-dependent antifibrotic effects | – | – | significantly decreases col3a1 levels
